Results published in patent US11312712B2, “Azabenzimidazoles and their use as AMPA receptor modulators” (Janssen Pharmaceutica NV, priority 2015, dated 2022).
pIC50: −log10 of the molar value.

Biological target: GluA1o-γ8 (GRIA1o-CACNG8 fusion construct) (Homo sapiens (Human), UniProt P42261+Q8WXS5)
Test: Calcium flux assay (FLIPR), inhibition of TARP γ8 dependent AMPA receptor activity
Assay type: cell-based
Settings: GluA1o-γ8 (GRIA1o-CACNG8 fusion) in HEK293 cells, calcium flux after 15 μM glutamate
Method in brief: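 Glutamate (15 μM) was added to a stable HEK293 line carrying the GluA1o–γ8 fusion, which had been preincubated with compound and calcium dye in HEPES buffer, pH 7.4. Normalized FLIPR fluorescence (no compound vs 10 μM CP465022) was fitted with four parameters; pIC50 is the midpoint's negative log.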

Sequence of GluA1o-γ8 (GRIA1o-CACNG8 fusion construct) (P42261 other isoform, or with tags, fused parts or gaps): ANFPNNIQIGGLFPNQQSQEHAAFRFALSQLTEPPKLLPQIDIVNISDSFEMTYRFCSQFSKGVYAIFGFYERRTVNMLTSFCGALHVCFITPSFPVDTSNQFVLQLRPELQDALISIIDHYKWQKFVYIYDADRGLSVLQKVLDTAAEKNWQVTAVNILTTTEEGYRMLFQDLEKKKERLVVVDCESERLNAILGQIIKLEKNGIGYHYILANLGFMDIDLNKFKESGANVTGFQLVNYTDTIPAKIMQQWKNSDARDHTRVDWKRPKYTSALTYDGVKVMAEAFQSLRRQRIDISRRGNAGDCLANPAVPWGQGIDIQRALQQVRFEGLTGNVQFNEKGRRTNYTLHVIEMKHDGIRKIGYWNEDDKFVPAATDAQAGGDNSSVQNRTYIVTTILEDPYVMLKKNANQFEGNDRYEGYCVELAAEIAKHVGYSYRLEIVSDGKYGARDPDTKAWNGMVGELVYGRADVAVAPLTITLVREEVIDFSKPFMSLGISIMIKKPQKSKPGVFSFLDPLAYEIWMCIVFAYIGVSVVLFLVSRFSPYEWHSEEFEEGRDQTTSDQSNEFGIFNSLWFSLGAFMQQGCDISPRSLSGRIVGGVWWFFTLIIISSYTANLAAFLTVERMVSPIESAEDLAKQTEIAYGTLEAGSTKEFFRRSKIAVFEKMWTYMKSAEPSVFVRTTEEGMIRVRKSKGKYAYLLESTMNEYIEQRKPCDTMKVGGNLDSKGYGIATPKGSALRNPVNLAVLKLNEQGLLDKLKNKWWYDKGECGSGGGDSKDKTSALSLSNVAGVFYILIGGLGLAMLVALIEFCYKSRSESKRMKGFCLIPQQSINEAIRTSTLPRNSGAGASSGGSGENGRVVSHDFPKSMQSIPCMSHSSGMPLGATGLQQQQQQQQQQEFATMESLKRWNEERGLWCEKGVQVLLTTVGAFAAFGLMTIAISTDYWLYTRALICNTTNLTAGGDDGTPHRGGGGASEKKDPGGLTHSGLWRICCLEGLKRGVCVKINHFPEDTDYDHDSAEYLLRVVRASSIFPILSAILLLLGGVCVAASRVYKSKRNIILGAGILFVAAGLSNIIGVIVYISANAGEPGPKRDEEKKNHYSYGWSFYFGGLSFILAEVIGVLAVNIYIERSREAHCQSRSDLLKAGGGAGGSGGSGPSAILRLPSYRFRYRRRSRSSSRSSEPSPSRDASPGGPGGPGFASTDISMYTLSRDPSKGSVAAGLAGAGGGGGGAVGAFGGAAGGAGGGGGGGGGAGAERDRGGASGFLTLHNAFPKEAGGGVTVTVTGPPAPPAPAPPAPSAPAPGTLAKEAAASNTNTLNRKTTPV

| pIC50 | Structure (SMILES) |
| --- | --- |
| 5.40 | CC(C)NC(=O)c1nc2ccc(C(F)(F)F)nc2n1-c1ccc2[nH]ncc2c1 [Example 172, 3-(1H-Indazol-5-yl)-N-isopropyl-5-(trifluoromethyl)imidazo[4,5-b]pyridine-2-carboxamide] |
| 5.00 | O=C(c1nc2ccc(C(F)(F)F)nc2n1-c1ccc2[nH]ncc2c1)N1CCCC1 [Example 173, [3-(1H-Indazol-5-yl)-5-(trifluoromethyl)imidazo[4,5-b]pyridin-2-yl]-pyrrolidin-1-yl-methanone] |
| 5.00 | FC(F)(F)c1ccc(-c2nc3cccnc3n2-c2ccc3[nH]ncc3c2)cc1 [Example 176, 3-(1H-Indazol-5-yl)-2-[4-(trifluoromethyl)phenyl]imidazo[4,5-b]pyridine] |
| 4.90 | FC(F)(F)Oc1ccc(-c2nc3cccnc3n2-c2ccc3[nH]ncc3c2)cc1 [Example 177, 3-(1H-Indazol-5-yl)-2-[4-(trifluoromethoxy)phenyl]imidazo[4,5-b]pyridine] |
| 5.50 | O=C1Cc2cc(-n3c(-c4ccc(C(F)(F)F)cc4)nc4cccnc43)ccc2N1 [Example 178, 5-[2-[4-(Trifluoromethyl)phenyl]imidazo[4,5-b]pyridin-3-yl]indolin-2-one] |
| 5.50 | CC(C)(C)OC(=O)N1CC(c2nc3ccc(C(F)(F)F)nc3n2-c2ccc3c(c2)CC(=O)N3)C1 [Example 179, tert-Butyl 3-[3-(2-oxoindolin-5-yl)-5-(trifluoromethyl)imidazo[4,5-b]pyridin-2-yl]azetidine-1-carboxylate] |
| 5.70 | O=C1Cc2cc(-n3c(C4CNC4)nc4ccc(C(F)(F)F)nc43)ccc2N1 [Example 180, 5-[2-(Azetidin-3-yl)-5-(trifluoromethyl)imidazo[4,5-b]pyridin-3-yl]indolin-2-one] |
| 5.60 | Cc1ccc2nc(C)n(-c3ccc4c(c3)CC(=O)N4)c2n1 [Example 181, 5-(2,5-Dimethylimidazo[4,5-b]pyridin-3-yl)indolin-2-one] |
| 5.70 | COC(=O)CCc1nc2ccc(C(F)(F)F)nc2n1-c1ccc2c(c1)CC(=O)N2 [Example 183, Methyl 3-[3-(2-oxoindolin-5-yl)-5-(trifluoromethyl)imidazo[4,5-b]pyridin-2-yl]propanoate] |
| 11.00 | CC(C)c1nc2ccc(C(F)(F)F)nc2n1-c1cc(Br)c2[nH]ncc2c1 [Example 184, 3-(7-Bromo-1H-indazol-5-yl)-2-isopropyl-5-(trifluoromethyl)imidazo[4,5-b]pyridine] |
| 7.00 | Cn1c(=O)sc2cc(-n3c(C4CCC4)nc4ccc(C(F)(F)F)nc43)ccc21 [Example 185, 6-(2-Cyclobutyl-5-(trifluoromethyl)-3H-imidazo[4,5-b]pyridin-3-yl)-3-methylbenzo[d]thiazol-2(3H)-one] |
| 11.00 | FC(F)(F)c1ccc2nc(C(F)(F)F)n(-c3cc(Br)c4[nH]ncc4c3)c2n1 [Example 187, 3-(7-Bromo-1H-indazol-5-yl)-2,5-bis(trifluoromethyl)imidazo[4,5-b]pyridine] |
| 6.50 | FC(F)(F)c1ccc2nc(C(F)(F)F)n(-c3cc(-c4ccccc4)c4[nH]ncc4c3)c2n1 [Example 188, 3-(7-Phenyl-1H-indazol-5-yl)-2,5-bis(trifluoromethyl)-3H-imidazo[4,5-b]pyridine] |
| 10.40 | C=Cc1cc(-n2c(C(F)(F)F)nc3ccc(C(F)(F)F)nc32)cc2cn[nH]c12 [Example 189, 2,5-Bis(trifluoromethyl)-3-(7-vinyl-1H-indazol-5-yl)-3H-imidazo[4,5-b]pyridine] |
| 6.50 | O=c1[nH]c2ccc(-n3cnc4ccc(C(F)(F)F)nc43)cc2s1 [Example 190, 6-(5-(Trifluoromethyl)-3H-imidazo[4,5-b]pyridin-3-yl)benzo[d]thiazol-2(3H)-one] |
| 8.40 | CC(C)c1nc2ccc(C(F)(F)F)nc2n1-c1ccc2[nH]nc(F)c2c1 [Example 191, 3-(3-Fluoro-1H-indazol-5-yl)-2-isopropyl-5-(trifluoromethyl)imidazo[4,5-b]pyridine] |
| 8.60 | FC(F)(F)c1nc2ccc(Cl)nc2n1-c1ccc2[nH]ncc2c1 [Example 192, 5-Chloro-3-(1H-indazol-5-yl)-2-(trifluoromethyl)imidazo[4,5-b]pyridine] |
| 8.80 | CCc1ccc2nc(C(F)(F)F)n(-c3ccc4[nH]ncc4c3)c2n1 [Example 193, 5-Ethyl-3-(1H-indazol-5-yl)-2-(trifluoromethyl)imidazo[4,5-b]pyridine] |
| 7.70 | Cc1cc(-n2cnc3ccc(C(F)(F)F)nc32)cc2cn[nH]c12 [Example 194, 3-(7-Methyl-1H-indazol-5-yl)-5-(trifluoromethyl)imidazo[4,5-b]pyridine] |
| 10.90 | Cc1cc(-n2c(-c3ccc(F)cc3)nc3ccc(C(F)(F)F)nc32)cc2cn[nH]c12 [Example 195, 2-(4-Fluorophenyl)-3-(7-methyl-1H-indazol-5-yl)-5-(trifluoromethyl)imidazo[4,5-b]pyridine] |

| pIC50 | Structure (SMILES) |
| --- | --- |
| 7.60 | CCOc1nc2ccc(C(F)(F)F)nc2n1-c1ccc2[nH]nc(F)c2c1 [Example 196, 2-Ethoxy-3-(3-fluoro-1H-indazol-5-yl)-5-(trifluoromethyl)imidazo[4,5-b]pyridine] |
| 8.20 | Fc1n[nH]c2ccc(-n3c(C4CC4)nc4ccc(C(F)(F)F)nc43)cc12 [Example 197, 2-Cyclopropyl-3-(3-fluoro-1H-indazol-5-yl)-5-(trifluoromethyl)imidazo[4,5-b]pyridine] |
| 10.50 | Cc1cc(-n2c(C(C)C)nc3ccc(C(F)(F)F)nc32)cc2cn[nH]c12 [Example 198, 2-Isopropyl-3-(7-methyl-1H-indazol-5-yl)-5-(trifluoromethyl)imidazo[4,5-b]pyridine] |
| 8.70 | FC(F)(F)c1nc2cccnc2n1-c1cc(Cl)c2[nH]ncc2c1 [Example 199, 3-(7-Chloro-1H-indazol-5-yl)-2-(trifluoromethyl)imidazo[4,5-b]pyridine] |
| 8.20 | CC(C)c1nc2cccnc2n1-c1cc(Cl)c2[nH]ncc2c1 [Example 200, 3-(7-Chloro-1H-indazol-5-yl)-2-isopropyl-imidazo[4,5-b]pyridine] |
| 7.00 | Cc1ccnc2c1nc(C(F)(F)F)n2-c1ccc2[nH]ncc2c1 [Example 201, 3-(1H-indazol-5-yl)-7-methyl-2-(trifluoromethyl)imidazo[4,5-b]pyridine] |
| 9.20 | Cc1ccnc2c1nc(C(F)(F)F)n2-c1cc(Cl)c2[nH]ncc2c1 [Example 202, 3-(7-Chloro-1H-indazol-5-yl)-7-methyl-2-(trifluoromethyl)imidazo[4,5-b]pyridine] |
| 8.30 | Cc1ccnc2c1nc(C(F)(F)F)n2-c1cc(C)c2[nH]ncc2c1 [Example 203, 7-Methyl-3-(7-methyl-1H-indazol-5-yl)-2-(trifluoromethyl)imidazo[4,5-b]pyridine] |
| 7.90 | FC(F)(F)c1ccc2nc(C(F)(F)F)n(-c3cnc4[nH]ncc4c3)c2n1 [Example 204, 3-(1H-pyrazolo[3,4-b]pyridin-5-yl)-2,5-bis(trifluoromethyl)imidazo[4,5-b]pyridine] |
| 6.40 | [O-][n+]1cc(-n2c(C(F)(F)F)nc3ccc(C(F)(F)F)nc32)cc2cn[nH]c21 [Example 205, 3-(7-Oxido-1H-pyrazolo[3,4-b]pyridin-7-ium-5-yl)-2,5-bis(trifluoromethyl)imidazo[4,5-b]pyridine] |
| 9.50 | O=c1[nH]c2ccc(-n3c(C(F)(F)F)nc4ccc(C(F)F)nc43)cc2s1 [Example 206, 6-[5-(difluoromethyl)-2-(trifluoromethyl)imidazo[4,5-b]pyridin-3-yl]-3H-1,3-benzothiazol-2-one] |
| 10.20 | FC(F)c1ccc2nc(C(F)F)n(-c3cc(Cl)c4[nH]ncc4c3)c2n1 [Example 207, 3-(7-Chloro-1H-indazol-5-yl)-2,5-bis(difluoromethyl)imidazo[4,5-b]pyridine] |
| 9.80 | FC(F)(F)c1nc2ccc(C3CCC3)nc2n1-c1ccc2[nH]ncc2c1 [Example 208, 5-Cyclobutyl-3-(1H-indazol-5-yl)-2-(trifluoromethyl)imidazo[4,5-b]pyridine] |
| 9.20 | CC(C)c1nc2ccc(C(F)F)nc2n1-c1ccc2[nH]ncc2c1 [Example 210, 5-(Difluoromethyl)-3-(1H-indazol-5-yl)-2-isopropyl-imidazo[4,5-b]pyridine] |
| 8.30 | CC(C)c1nc2ccc(C(C)(F)F)nc2n1-c1ccc2[nH]ncc2c1 [Example 211, 5-(1,1-Difluoroethyl)-3-(1H-indazol-5-yl)-2-isopropyl-imidazo[4,5-b]pyridine] |
| 10.10 | Cc1cc(-n2c(C(F)F)nc3ccc(C(F)F)nc32)cc2cn[nH]c12 [Example 212, 2,5-Bis(difluoromethyl)-3-(7-methyl-1H-indazol-5-yl)imidazo[4,5-b]pyridine] |
| 9.30 | Cc1ccc2nc(-c3ccnc(F)c3)n(-c3cc(C)c4[nH]ncc4c3)c2n1 [Example 213, 2-(2-Fluoro-4-pyridyl)-5-methyl-3-(7-methyl-1H-indazol-5-yl)imidazo[4,5-b]pyridine] |
| 9.80 | Cc1cc(-n2c(C(C)C)nc3c(N(C)CCF)cc(C(F)(F)F)nc32)cc2cn[nH]c12 [Example 214, N-(2-Fluoroethyl)-2-isopropyl-N-methyl-3-(7-methyl-1H-indazol-5-yl)-5-(trifluoromethyl)imidazo[4,5-b]pyridin-7-amine] |
| 5.80 | O=C1Nc2ccc(-n3c(-c4ccnc(F)c4)nc4ccc(C(F)(F)F)nc43)cc2C1=O [Example 215, 5-[2-(2-Fluoro-4-pyridyl)-5-(trifluoromethyl)imidazo[4,5-b]pyridin-3-yl]indoline-2,3-dione] |
| 10.30 | Cc1cc(-n2c(-c3ccnc(F)c3)nc3ccc(C(F)(F)F)nc32)cc2cn[nH]c12 [Example 217, 2-(2-Fluoro-4-pyridyl)-3-(7-methyl-1H-indazol-5-yl)-5-(trifluoromethyl)imidazo[4,5-b]pyridine] |
